The values below come from US10968172B2, “USP30 inhibitors” (Mitobridge, Inc., priority 2017, dated 2021).

Where only a bound is given, the exact number is not on record here.

This assay concerns the target USP30 (Homo sapiens (Human), UniProt Q70CQ3). As to the kind of experiment: In vitro biochemical assay for USP30 enzyme (Ubiquitin-Rhodamine110 cleavage, fluorescence). As to conditions: 20 nM USP30, 15 min pre-incubation, 100 nM Ub rhodamine substrate, 2 hrs at room temperature. The procedure: In vitro biochemical assay for USP30 enzyme
The in vitro assay for USP30 evaluates the ability of a test compound to inhibit the activity of the enzyme to cleave ubiquitin from a substrate. Ubiquitin-rhodamine 110 is a quenched, fluorescent substrate for USP30. Cleavage of the amide bond between the C-terminal glycine of ubiquitin and rhodamine results in an increase in rhodamine fluorescence at 535 nm (Exc. 485 nm).
Incubation of the substrate in the presence or absence of USP30 was compared to confirm the deubiquitylating activity of USP30. The USP30 enzyme assay was performed by pre-incubating 20 nM of USP30 with varying concentration of a test compound in the assay buffer [PBS (pH 7.4), 1 mM DTT, 0.01% Tween 20, 0.01% BSA, DMSO final concentration is 1%] for 15 mins at room temperature, following which 100 nM of substrate Ub rhodamine was added and incubated at room temperature for 2 hrs and the plate was read for fluorescence intensity at Ex. 485 nm/535 nm in VICTOR X5 plate reader. The percent inhibition of activity of the enzyme is calculated by comparing counts in the presence and absence of compounds.
Test compounds were screened at various concentrations (10-12 tested concentrations) and dose response curves were generated was generated using GraphPad Prism software Version 7 (San Diego, Calif., USA) with non-linear regression curve fit for sigmoidal dose response (variable slope).

Chain of USP30 (Q70CQ3 whole entry): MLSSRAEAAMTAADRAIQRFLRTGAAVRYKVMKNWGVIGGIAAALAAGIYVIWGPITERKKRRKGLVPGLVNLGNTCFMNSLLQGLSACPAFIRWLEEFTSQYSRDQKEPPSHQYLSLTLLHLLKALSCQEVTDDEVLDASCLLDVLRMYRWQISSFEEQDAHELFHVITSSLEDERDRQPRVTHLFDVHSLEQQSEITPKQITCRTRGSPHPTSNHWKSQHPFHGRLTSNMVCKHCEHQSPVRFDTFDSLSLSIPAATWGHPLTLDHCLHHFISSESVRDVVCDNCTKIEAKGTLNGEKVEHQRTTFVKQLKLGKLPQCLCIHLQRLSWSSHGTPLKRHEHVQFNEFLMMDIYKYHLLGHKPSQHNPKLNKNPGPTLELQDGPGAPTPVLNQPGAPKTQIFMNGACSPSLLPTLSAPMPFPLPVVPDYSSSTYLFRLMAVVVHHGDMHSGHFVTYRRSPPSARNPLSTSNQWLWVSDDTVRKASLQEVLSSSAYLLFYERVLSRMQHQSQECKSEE

As usually defined, the IC50 is the concentration at which inhibition is half-maximal. Read a high IC50 as weaker potency in that assay. `CC(C)(C)NS(=O)(=O)c1cccc2c(NC(=O)[C@H](Cc3ccccc3Cl)NC(=O)c3ccccc3)cccc12` [Compound 7d, (S)-N-(1-((5-(N-(tert-butyl)sulfamoyl)naphthalen-1-yl)amino)-3-(2-chlorophenyl)-1-oxopropan-2-yl)benzamide] had a half-maximal inhibitory concentration (IC50) of over 10000 nM. Then `CC(C)(C)NS(=O)(=O)c1cccc2c(NC(=O)[C@H](Cc3ccc(F)cc3)NC(=O)c3ccccc3)cccc12` [Compound 7e, (S)-N-(1-((5-(N-(tert-butyl)sulfamoyl)naphthalen-1-yl)amino)-3-(4-fluorophenyl)-1-oxopropan-2-yl)benzamide], with 153 nM.

As to `COc1ccc(C[C@H](NC(=O)c2ccccc2)C(=O)Nc2cccc3c(S(=O)(=O)NC(C)(C)C)cccc23)cc1` [Compound 7f, (S)-N-(1-((5-(N-(tert-butyl)sulfamoyl)naphthalen-1-yl)amino)-3-(4-methoxyphenyl)-1-oxopropan-2-yl)benzamide], the concentration for half-maximal inhibition (IC50) is 89 nM. The value for `CC(C)(C)NS(=O)(=O)c1cccc2c(NC(=O)[C@H](CC3CC3)NC(=O)c3ccccc3)cccc12` [Compound 7h, (S)-N-(1-((5-(N-(tert-butyl)sulfamoyl)naphthalen-1-yl)amino)-3-cyclopropyl-1-oxopropan-2-yl)benzamide] was 2200 nM; that for `CC(C)(C)NS(=O)(=O)c1cccc2c(NC(=O)[C@H](Cc3cnc[nH]3)NC(=O)c3ccccc3)cccc12` [Compound 7i, (S)-N-(1-((5-(N-(tert-butyl)sulfamoyl)naphthalen-1-yl)amino)-3-(1H-imidazol-5-yl)-1-oxopropan-2-yl)benzamide] was over 10000 nM. The value for `CC(C)(C)NS(=O)(=O)c1cccc2c(NC(=O)[C@H](Cc3ccc(C#N)cc3)NC(=O)c3ccccc3)cccc12` [Compound 7j, (S)-N-(1-((5-(N-(tert-butyl)sulfamoyl)naphthalen-1-yl)amino)-3-(4-cyanophenyl)-1-oxopropan-2-yl)benzamide] was 273 nM; that for `CC(C)(C)NS(=O)(=O)c1cccc2c(NC(=O)[C@H](Cc3cccs3)NC(=O)c3ccccc3)cccc12` [Compound 7k, (S)-N-(1-((5-(N-(tert-butyl)sulfamoyl)naphthalen-1-yl)amino)-1-oxo-3-(thiophen-2-yl)propan-2-yl)benzamide] was 230 nM; that for `Cc1ccccc1C[C@H](NC(=O)c1ccccc1)C(=O)Nc1cccc2c(S(=O)(=O)NC(C)(C)C)cccc12` [Compound 7l, (S)-N-(1-((5-(N-(tert-butyl)sulfamoyl)naphthalen-1-yl)amino)-1-oxo-3-(o-tolyl)propan-2-yl)benzamide] was over 10000 nM. Molecule `Cc1ccc(C[C@H](NC(=O)c2ccccc2)C(=O)Nc2cccc3c(S(=O)(=O)NC(C)(C)C)cccc23)cc1` [Compound 7m, (S)-N-(1-((5-(N-(tert-butyl)sulfamoyl)naphthalen-1-yl)amino)-1-oxo-3-(p-tolyl)propan-2-yl)benzamide] yielded a concentration for half-maximal inhibition (IC50) of over 10000 nM. Then `CC(C)(C)NS(=O)(=O)c1cccc2c(NC(=O)[C@H](Cc3ccc(Cl)cc3)NC(=O)c3ccccc3)cccc12` [Compound 7n, (S)-N-(1-((5-(N-(tert-butyl)sulfamoyl)naphthalen-1-yl)amino)-3-(4-chlorophenyl)-1-oxopropan-2-yl)benzamide], with 446 nM; and `CC(C)(C)NS(=O)(=O)c1ccc(NC(=O)[C@H](Cc2ccccc2)NC(=O)c2ccccc2)cc1` [Compound 10a, (S)-N-(1-((4-(N-(tert-butyl)sulfamoyl)phenyl)amino)-1-oxo-3-phenylpropan-2-yl)benzamide], with over 10000 nM. For the molecule `CC(C)(C)NS(=O)(=O)c1ccc(NC(=O)[C@H](Cc2ccccc2)NC(=O)C2CCCCC2)cc1` [Compound 10b, (S)—N-(1-((4-(N-(tert-butyl)sulfamoyl)phenyl)amino)-1-oxo-3-phenylpropan-2-yl)cyclohexanecarboxamide], the IC50 was 59 nM. Then `CC(C)(C)NS(=O)(=O)c1ccc(NC(=O)[C@H](Cc2ccccc2)NC(=O)C2CCCC2)cc1` [Compound 10c, (S)-N-(1-((4-(N-(tert-butyl)sulfamoyl)phenyl)amino)-1-oxo-3-phenylpropan-2-yl)cyclopentanecarboxamide], with 71 nM. `CC(C)(C)NS(=O)(=O)c1ccc(NC(=O)[C@@H](Cc2ccccc2)NC(=O)C2CCCCC2)cc1` [Compound 10d, (R)-N-(1-((4-(N-(tert-butyl)sulfamoyl)phenyl)amino)-1-oxo-3-phenylpropan-2-yl)cyclohexanecarboxamide] displayed a concentration for half-maximal inhibition (IC50) of 28 nM.

`CC(C)(C)NS(=O)(=O)c1ccc(NC(=O)[C@H](Cc2ccccc2)NC(=O)c2ccc(F)cc2)cc1` [Compound 10e] displayed an IC50 of 17 nM. `CC(C)(C)NS(=O)(=O)c1ccc(NC(=O)[C@H](Cc2ccccc2)NC(=O)c2ccc(C(=O)O)cc2)cc1` [Compound 10f, (S)-4-((1-((4-(N-(tert-butyl)sulfamoyl)phenyl)amino)-1-oxo-3-phenylpropan-2-yl)carbamoyl)benzoic acid] gave a concentration for half-maximal inhibition (IC50) of over 10000 nM.

The molecule `COC(=O)c1ccc(C(=O)N[C@@H](Cc2ccccc2)C(=O)Nc2ccc(S(=O)(=O)NC(C)(C)C)cc2)cc1` [Compound 10g, methyl (S)-4-((1-((4-(N-(tert-butyl)sulfamoyl)phenyl)amino)-1-oxo-3-phenylpropan-2-yl)carbamoyl)benzoate] yielded an IC50 of over 10000 nM. Then `CC(C)(C)NS(=O)(=O)c1ccc(NC(=O)[C@H](Cc2ccccc2)NC(=O)c2ccccn2)cc1` [Compound 10h, (S)-N-(1-((4-(N-(tert-butyl)sulfamoyl)phenyl)amino)-1-oxo-3-phenylpropan-2-yl)picolinamide], with 250 nM; and `CC(C)(C)NS(=O)(=O)c1ccc(NC(=O)[C@H](Cc2ccccc2)NC(=O)[C@@H]2CCCN2)cc1` [Compound 10i, (S)-N-((S)-1-((4-(N-(tert-butyl)sulfamoyl)phenyl)amino)-1-oxo-3-phenylpropan-2-yl)pyrrolidine-2-carboxamide], with over 10000 nM; and `CC(C)(C)NS(=O)(=O)c1ccc(NC(=O)[C@H](Cc2ccccc2)NC(=O)c2cccnn2)cc1` [Compound 10j, (S)-N-(1-((4-(N-(tert-butyl)sulfamoyl)phenyl)amino)-1-oxo-3-phenylpropan-2-yl)pyridazine-3-carboxamide], with 148 nM.

`CC(C)(C)NS(=O)(=O)c1ccc(NC(=O)[C@H](CC2CCCCC2)NC(=O)c2ccccc2)cc1` [Compound 14a, (S)-N-(1-((4-(N-(tert-butyl)sulfamoyl)phenyl)amino)-3-cyclohexyl-1-oxopropan-2-yl)benzamide] came in with a concentration for half-maximal inhibition (IC50) of 225 nM. On to `CC(C)(C)NS(=O)(=O)c1ccc(NC(=O)[C@H](CC2CCCCC2)NC(=O)C2CCCCC2)cc1` [Compound 14b, (S)-N-(1-((4-(N-(tert-butyl)sulfamoyl)phenyl)amino)-3-cyclohexyl-1-oxopropan-2-yl)cyclohexanecarboxamide], for which the IC50 amounted to 83 nM. As for `CC(C)(C)NS(=O)(=O)c1ccc(NC(=O)[C@H](CC2CCCCC2)NC(=O)c2ccc(F)cc2)cc1` [Compound 14c, (S)-N-(1-((4-(N-(tert-butyl)sulfamoyl)phenyl)amino)-3-cyclohexyl-1-oxopropan-2-yl)-4-fluorobenzamide], the IC50 was determined as 23 nM. Then `CC(C)(C)NS(=O)(=O)c1ccc(NC(=O)[C@H](CC2CCCCC2)NC(=O)c2ccc(C(F)(F)F)cc2)cc1` [Compound 14d, (S)-N-(1-((4-(N-(tert-butyl)sulfamoyl)phenyl)amino)-3-cyclohexyl-1-oxopropan-2-yl)-4-(trifluoromethyl)benzamide], with over 10000 nM; and `CC(C)(C)NS(=O)(=O)c1ccc(NC(=O)[C@H](CC2CCCCC2)NC(=O)C2CCCC2)cc1` [Compound 14e, (S)-N-(1-((4-(N-(tert-butyl)sulfamoyl)phenyl)amino)-3-cyclohexyl-1-oxopropan-2-yl)cyclopentanecarboxamide], with 120 nM. Consider `CC(C)(C)NS(=O)(=O)c1ccc(NC(=O)[C@H](CC2CCCCC2)NC(=O)c2ccccc2F)cc1` [Compound 14f, (S)-N-(1-((4-(N-(tert-butyl)sulfamoyl)phenyl)amino)-3-cyclohexyl-1-oxopropan-2-yl)-2-fluorobenzamide], for which the IC50 was 461 nM. Then `CC(C)(C)NS(=O)(=O)c1ccc(NC(=O)[C@H](CC2CCCCC2)NC(=O)c2cccc(F)c2)cc1` [Compound 14g, (S)-N-(1-((4-(N-(tert-butyl)sulfamoyl)phenyl)amino)-3-cyclohexyl-1-oxopropan-2-yl)-3-fluorobenzamide], with 57 nM; and `CC(C)(C)NS(=O)(=O)c1ccc(NC(=O)[C@H](CC2CCCCC2)NC(=O)c2ccc(F)c(F)c2)cc1` [Compound 14h, (S)-N-(1-((4-(N-(tert-butyl)sulfamoyl)phenyl)amino)-3-cyclohexyl-1-oxopropan-2-yl)-3,4-difluorobenzamide], with 31 nM; and `CC(C)(C)NS(=O)(=O)c1ccc(NC(=O)[C@H](CC2CCCCC2)NC(=O)c2cccc(C#N)c2)cc1` [Compound 14i, (S)-N-(1-((4-(N-(tert-butyl)sulfamoyl)phenyl)amino)-3-cyclohexyl-1-oxopropan-2-yl)-3-cyanobenzamide], with over 10000 nM.
